{
  "source": "ChEMBL document CHEMBL1201862",
  "about": "“PubChem BioAssay data set” (2004)",
  "key": {"Trypsin": {"biological_target": "Trypsin (Sus scrofa, UniProt P00761)", "sequence (P00761 whole entry)": "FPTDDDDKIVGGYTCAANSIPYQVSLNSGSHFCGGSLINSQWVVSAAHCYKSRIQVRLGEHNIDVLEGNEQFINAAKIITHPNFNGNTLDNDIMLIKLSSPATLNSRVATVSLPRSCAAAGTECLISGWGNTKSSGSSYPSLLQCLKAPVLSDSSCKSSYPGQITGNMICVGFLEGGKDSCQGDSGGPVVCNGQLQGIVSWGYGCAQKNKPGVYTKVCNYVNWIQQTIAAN", "experiment": "porcine trypsin inhibitors, dose response, selectivity assay for Rce1 protease inhibitor project, biochemical, quenched peptide fluorescence, cherry-pick (AID 488789)"}, "CAAX prenyl protease 2": {"biological_target": "T1, CAAX prenyl protease 2 (Saccharomyces cerevisiae S288c, UniProt Q03530)", "T1 sequence (Q03530 whole entry)": "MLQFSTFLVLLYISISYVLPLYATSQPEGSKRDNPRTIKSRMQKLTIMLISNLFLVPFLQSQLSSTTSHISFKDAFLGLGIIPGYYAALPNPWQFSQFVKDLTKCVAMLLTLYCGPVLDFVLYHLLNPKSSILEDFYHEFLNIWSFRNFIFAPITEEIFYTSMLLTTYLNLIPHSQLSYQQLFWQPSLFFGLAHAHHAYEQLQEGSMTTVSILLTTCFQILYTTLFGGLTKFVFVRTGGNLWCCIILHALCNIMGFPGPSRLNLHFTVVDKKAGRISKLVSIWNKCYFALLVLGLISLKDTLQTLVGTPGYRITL", "type": "biochemical"}, "CAAX prenyl protease 1": {"biological_target": "CAAX prenyl protease 1 (Saccharomyces cerevisiae S288c, UniProt P47154)", "sequence (P47154 whole entry)": "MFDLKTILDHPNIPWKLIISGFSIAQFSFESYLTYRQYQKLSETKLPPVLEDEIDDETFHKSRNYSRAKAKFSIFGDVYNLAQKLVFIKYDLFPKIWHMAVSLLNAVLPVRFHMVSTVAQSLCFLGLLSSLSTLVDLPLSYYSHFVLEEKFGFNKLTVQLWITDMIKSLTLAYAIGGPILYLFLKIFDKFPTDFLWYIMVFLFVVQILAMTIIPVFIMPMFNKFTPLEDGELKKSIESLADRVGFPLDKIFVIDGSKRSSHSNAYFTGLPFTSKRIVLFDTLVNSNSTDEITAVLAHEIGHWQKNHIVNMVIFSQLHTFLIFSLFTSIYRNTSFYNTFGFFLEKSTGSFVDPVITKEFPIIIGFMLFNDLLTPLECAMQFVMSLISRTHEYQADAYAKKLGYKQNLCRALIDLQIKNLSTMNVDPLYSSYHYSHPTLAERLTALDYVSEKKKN", "experiment": "Ste24 protease inhibitors, dose response, biochemical, S. cerevisiae, plate reader, cherry-pick (AID 488815)"}, "[1]": {"biological_target": "T2, Dual specificity protein phosphatase 3 (Homo sapiens, UniProt P51452)", "T2 sequence (P51452 whole entry)": "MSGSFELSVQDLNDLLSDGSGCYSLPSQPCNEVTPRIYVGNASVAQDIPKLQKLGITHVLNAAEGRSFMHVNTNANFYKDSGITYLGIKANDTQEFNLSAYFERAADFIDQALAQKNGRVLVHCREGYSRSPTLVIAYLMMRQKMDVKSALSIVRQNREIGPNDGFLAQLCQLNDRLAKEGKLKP", "experiment": "SAR VHR1 absorbance Assay for In Vitro dose response studies. [Related pubchem assays (depositor defined):AID1654, AID1661, AID1878, AID1992, AID2004]"}, "[2]": {"biological_target": "T2, Dual specificity protein phosphatase 3", "experiment": "SAR VHR1 Fluorescent Assay for In Vitro dose response studies. [Related pubchem assays (depositor defined):AID1654, AID1661, AID1878, AID1992, AID2004, AID2070, AID2085]", "type": "functional"}, "[3]": {"biological_target": "T3, Tyrosine-protein phosphatase non-receptor type 7 (Homo sapiens, UniProt P35236)", "T3 sequence (P35236 whole entry)": "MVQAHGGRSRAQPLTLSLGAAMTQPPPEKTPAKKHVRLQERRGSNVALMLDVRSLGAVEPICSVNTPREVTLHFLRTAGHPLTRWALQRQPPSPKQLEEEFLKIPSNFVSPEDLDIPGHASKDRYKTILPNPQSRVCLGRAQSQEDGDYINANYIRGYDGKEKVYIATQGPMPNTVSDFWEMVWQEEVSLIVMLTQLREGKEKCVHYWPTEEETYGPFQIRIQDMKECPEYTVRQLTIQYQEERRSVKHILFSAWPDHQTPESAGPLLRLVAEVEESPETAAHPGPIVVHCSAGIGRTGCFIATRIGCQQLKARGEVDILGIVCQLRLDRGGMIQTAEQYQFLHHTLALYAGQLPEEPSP", "experiment": "redox-dependent HePTP inhibition, mechanism study, biochemical, fluorescence (AID 2068)", "type": "functional"}, "[4]": {"biological_target": "Dual specificity protein phosphatase 6 (Rattus norvegicus, UniProt Q64346)", "sequence (Q64346 whole entry)": "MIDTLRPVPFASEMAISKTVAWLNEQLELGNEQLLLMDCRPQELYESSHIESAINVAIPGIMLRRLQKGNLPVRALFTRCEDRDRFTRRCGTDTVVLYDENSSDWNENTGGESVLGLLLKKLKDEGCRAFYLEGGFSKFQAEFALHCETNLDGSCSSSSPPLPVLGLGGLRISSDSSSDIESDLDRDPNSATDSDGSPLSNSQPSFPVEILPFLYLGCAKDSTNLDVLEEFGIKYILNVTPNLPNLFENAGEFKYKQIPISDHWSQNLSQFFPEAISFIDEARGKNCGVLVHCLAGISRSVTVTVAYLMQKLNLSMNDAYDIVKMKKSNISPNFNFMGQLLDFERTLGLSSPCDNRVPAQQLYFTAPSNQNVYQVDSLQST", "type": "functional"}, "INS1 [5]": {"tested_on": "INS1", "experiment": "inhibitors of cytokine-induced nitrite release, dose response, cell-based, Griess absorbance, INS-1E, dry powder (AID 488866)", "type": "functional", "settings": "Rattus norvegicus"}, "[6]": {"experiment": "inhibitors of firefly luciferase expression or activity, dose response, H4 neuroglioma cells, luminescence (AID 1990)", "type": "functional, cell-based"}, "BJ [7]": {"tested_on": "BJ", "experiment": "cytotoxicity toward BJ-TERT fibroblasts, dose response, cell-based, RAS-independent, luminescence (AID 1933)", "type": "functional", "settings": "Homo sapiens"}, "cells [8]": {"experiment": "cells", "type": "functional, cell-based"}, "[9]": {"experiment": "Luminescence Cell-Based Dose Response HTS to Identify Inhibitors of 5'UTR Stem-Loop Driven Prion Protein mRNA Translation in H4 Neuroglioblastoma Cells. [Related pubchem assays: 1827 (Project Summary), 1813 (Primary HTS)]", "type": "functional"}, "[10]": {"experiment": "inhibitors of SNCA 5'UTR-driven reporter translation, confirmation, H4 neuroglioma cells, luminescence (AID 1988)", "type": "functional, cell-based"}, "BJ [11]": {"tested_on": "BJ", "experiment": "cells", "type": "functional, cell-based", "settings": "Homo sapiens"}, "cells [12]": {"experiment": "cells", "type": "functional, cell-based", "remark": "listed apart in the source"}, "BJ [13]": {"tested_on": "BJ", "experiment": "cytotoxicity toward BJ-TERT-LT-ST fibroblasts, dose response, cell-based, RAS-independent, luminescence (AID 1935);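 note: BJ fibroblasts immortalized with TERT plus LT and ST oncogenes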", "type": "functional", "settings": "Homo sapiens"}, "[14]": {"experiment": "cytotoxicity toward DRD oncogenic fibroblasts, dose response, cell-based, non-viral oncogenic, luminescence (AID 1934)", "type": "functional", "settings": "Homo sapiens"}, "Exodeoxyribonuclease V": {"biological_target": "Exodeoxyribonuclease V (Escherichia coli (strain K12), UniProt P04993+P07648+P08394)", "sequence (P04993 whole entry)": "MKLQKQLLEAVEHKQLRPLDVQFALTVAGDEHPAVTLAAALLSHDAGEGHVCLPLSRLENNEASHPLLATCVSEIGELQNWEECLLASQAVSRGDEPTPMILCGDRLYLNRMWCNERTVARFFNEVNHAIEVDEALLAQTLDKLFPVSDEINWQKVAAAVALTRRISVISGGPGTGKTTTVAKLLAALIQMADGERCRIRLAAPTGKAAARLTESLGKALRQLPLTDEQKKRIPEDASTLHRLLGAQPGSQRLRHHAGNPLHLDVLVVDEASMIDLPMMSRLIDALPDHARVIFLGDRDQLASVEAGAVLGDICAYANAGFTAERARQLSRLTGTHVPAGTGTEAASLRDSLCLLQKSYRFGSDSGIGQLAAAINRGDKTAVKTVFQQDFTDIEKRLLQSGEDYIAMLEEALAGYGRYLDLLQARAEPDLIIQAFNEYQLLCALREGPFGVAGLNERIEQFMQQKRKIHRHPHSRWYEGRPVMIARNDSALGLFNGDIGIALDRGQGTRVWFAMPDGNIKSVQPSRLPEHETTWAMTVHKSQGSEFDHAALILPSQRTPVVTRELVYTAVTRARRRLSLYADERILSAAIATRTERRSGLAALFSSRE", "sequence (P07648 whole entry)": "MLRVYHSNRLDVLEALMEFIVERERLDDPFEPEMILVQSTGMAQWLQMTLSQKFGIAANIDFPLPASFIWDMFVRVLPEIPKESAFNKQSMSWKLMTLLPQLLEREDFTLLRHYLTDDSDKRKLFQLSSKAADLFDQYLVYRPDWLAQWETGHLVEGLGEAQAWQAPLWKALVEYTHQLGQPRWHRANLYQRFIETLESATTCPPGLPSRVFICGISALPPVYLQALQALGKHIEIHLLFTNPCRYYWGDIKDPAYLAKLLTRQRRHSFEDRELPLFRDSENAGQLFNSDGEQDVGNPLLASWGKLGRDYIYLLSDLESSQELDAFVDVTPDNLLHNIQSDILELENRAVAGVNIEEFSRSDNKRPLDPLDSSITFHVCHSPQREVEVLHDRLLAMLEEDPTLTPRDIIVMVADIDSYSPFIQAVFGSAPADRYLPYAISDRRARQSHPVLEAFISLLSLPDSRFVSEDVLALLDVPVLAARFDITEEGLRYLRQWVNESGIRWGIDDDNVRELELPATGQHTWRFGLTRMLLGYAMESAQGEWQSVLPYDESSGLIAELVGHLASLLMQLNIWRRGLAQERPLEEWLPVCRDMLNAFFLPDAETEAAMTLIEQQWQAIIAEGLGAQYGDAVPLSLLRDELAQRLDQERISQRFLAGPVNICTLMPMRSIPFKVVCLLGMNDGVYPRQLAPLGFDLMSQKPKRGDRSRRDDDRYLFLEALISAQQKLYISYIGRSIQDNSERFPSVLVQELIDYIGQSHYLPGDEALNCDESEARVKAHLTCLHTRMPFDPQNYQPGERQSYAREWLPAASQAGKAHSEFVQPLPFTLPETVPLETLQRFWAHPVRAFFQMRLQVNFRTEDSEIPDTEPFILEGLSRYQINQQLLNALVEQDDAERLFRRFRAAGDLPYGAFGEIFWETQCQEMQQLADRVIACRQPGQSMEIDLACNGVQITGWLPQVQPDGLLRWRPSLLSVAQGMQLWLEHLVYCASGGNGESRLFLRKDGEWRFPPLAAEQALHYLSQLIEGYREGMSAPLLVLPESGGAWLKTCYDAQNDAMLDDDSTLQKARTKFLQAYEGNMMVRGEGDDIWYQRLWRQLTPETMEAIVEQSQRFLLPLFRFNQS", "sequence (P08394 whole entry)": "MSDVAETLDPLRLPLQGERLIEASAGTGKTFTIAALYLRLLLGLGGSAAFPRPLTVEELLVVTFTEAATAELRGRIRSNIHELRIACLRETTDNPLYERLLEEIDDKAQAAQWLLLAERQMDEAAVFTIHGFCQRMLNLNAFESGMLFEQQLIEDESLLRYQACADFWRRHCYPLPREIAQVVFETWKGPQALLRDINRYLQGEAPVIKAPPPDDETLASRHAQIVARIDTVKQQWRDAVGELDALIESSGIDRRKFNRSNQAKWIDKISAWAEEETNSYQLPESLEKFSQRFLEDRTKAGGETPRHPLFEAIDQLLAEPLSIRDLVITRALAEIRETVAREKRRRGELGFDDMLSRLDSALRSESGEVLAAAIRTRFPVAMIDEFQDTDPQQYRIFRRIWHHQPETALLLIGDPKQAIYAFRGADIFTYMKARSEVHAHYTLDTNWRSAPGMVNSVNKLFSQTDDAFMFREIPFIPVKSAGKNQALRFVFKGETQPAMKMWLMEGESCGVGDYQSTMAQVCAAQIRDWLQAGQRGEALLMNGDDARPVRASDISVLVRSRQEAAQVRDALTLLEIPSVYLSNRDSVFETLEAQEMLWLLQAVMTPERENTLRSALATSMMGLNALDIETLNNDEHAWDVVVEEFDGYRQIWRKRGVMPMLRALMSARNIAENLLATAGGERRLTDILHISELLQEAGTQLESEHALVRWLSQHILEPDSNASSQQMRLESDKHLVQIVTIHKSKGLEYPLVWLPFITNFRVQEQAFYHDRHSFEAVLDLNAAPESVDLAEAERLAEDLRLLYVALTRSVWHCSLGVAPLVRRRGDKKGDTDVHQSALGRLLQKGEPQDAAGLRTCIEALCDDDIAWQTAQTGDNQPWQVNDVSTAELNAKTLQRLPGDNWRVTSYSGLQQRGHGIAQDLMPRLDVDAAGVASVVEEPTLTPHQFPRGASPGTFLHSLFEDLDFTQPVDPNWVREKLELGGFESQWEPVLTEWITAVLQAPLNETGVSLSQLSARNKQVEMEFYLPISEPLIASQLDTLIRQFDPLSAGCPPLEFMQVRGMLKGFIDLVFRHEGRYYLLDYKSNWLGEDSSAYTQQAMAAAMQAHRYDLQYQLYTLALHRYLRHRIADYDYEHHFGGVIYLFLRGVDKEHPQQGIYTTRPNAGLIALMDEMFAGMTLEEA", "experiment": "E. coli RecBCD inhibitors, dose response, counter-screen for AddAB inhibitor project, absorbance, V66 E. coli, mutant T4 phage (AID 492957)", "type": "functional, cell-based, Escherichia coli str. K-12 substr. MG1655"}, "[15]": {"experiment": "THP-1 cell cytotoxicity, dose response, cytotoxicity control for non-replicating M. tuberculosis project (AID 489025)", "type": "functional"}, "[16]": {"biological_target": "Intestinal-type alkaline phosphatase (Homo sapiens, UniProt P09923)", "sequence (P09923 whole entry)": "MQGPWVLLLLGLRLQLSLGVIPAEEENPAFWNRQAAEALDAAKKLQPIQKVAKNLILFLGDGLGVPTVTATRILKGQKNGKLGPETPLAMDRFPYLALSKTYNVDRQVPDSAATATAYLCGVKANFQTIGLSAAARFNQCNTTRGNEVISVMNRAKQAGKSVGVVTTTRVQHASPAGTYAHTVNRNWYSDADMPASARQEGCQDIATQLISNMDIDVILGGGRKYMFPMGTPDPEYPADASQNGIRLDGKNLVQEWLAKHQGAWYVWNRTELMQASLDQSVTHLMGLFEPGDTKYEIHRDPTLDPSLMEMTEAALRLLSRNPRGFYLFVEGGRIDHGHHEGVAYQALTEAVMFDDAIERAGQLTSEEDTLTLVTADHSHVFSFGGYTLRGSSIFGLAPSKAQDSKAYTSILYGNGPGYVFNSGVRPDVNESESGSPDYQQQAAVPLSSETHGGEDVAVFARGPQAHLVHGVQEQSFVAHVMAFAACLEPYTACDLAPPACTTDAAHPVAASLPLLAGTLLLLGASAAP", "experiment": "Dose Response confirmation of uHTS hits from a small molecule inhibitors of human intestinal alkaline phosphatase via a luminescent assay. [Related pubchem assays (depositor defined):AID2544, AID2574]", "type": "functional"}, "Nonstructural protein 1": {"biological_target": "Nonstructural protein 1 (Influenza A virus, UniProt Q194T2)", "sequence (Q194T2 whole entry)": "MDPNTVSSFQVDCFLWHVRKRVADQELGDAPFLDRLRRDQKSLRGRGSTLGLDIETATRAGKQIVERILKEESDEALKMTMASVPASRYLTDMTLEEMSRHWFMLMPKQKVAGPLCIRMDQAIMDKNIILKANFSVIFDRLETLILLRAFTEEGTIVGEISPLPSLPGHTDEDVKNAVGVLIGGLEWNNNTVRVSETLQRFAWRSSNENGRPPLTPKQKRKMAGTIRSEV", "type": "functional, Influenza A virus (A/California/07/2009(H1N1))"}, "[17]": {"experiment": "Counterscreen for AddAB inhibitors: absorbance-based bacterial cell-based high throughput dose response assay for inhibitors of bacterial viability. [Related pubchem assays (depositor defined):AID435030, AID449728, AID449731, AID488942, AID488955, AID488956]", "type": "functional"}, "cells [18]": {"experiment": "cells", "type": "functional"}, "HEK293": {"tested_on": "HEK293", "experiment": "inhibitors of LMP1-driven NF-kB reporter, dose response, cell-based, HEK293, luciferase, cherry-pick (AID 588343)", "type": "functional", "settings": "Homo sapiens"}, "[19]": {"biological_target": "Heat shock protein HSP 90-alpha (Homo sapiens, UniProt P07900)", "type": "functional, organism-based"}, "BJ [20]": {"tested_on": "BJ", "experiment": "cytotoxicity toward Ras-transformed BJeLR fibroblasts, dose response, cell-based, alamar blue fluorescence, cherrypicked samples (AID 2631)", "type": "functional", "settings": "Homo sapiens"}, "INS1 [21]": {"tested_on": "INS1", "experiment": "beta cell apoptosis inhibitors, cytokine rescue, dose response, luminescence, retest (AID 449756);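 note: cell death triggered by IL-1 beta plus TNF-alpha plus IFN-gamma mixture; protective hits raise ATP signal compared with cytokine alone wells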", "type": "functional, cell-based", "settings": "Rattus norvegicus"}},
  "note": "Active and inactive are the calls of the source.",
  "data": [
    {"compound": "COc1ccccc1-c1coc2c(CN3CCN(C)CC3)c(O)ccc2c1=O", "values": [
      {"measurement": "AC50", "setting": "Trypsin", "value": "28.3 µM (active)"},
      {"measurement": "AC50", "setting": "CAAX prenyl protease 2", "value": "97.9 µM (active)"},
      {"measurement": "AC50", "setting": "CAAX prenyl protease 1", "value": "1.57 µM (active)"}
    ]},
    {"compound": "S=C(NC1CCCCC1)c1cn(CCOc2ccccc2)c2ccccc12", "values": [
      {"measurement": "IC50", "setting": "[1]", "value": "> 100 µM (inactive)"},
      {"measurement": "IC50", "setting": "[2]", "value": "> 100 µM (inactive)"},
      {"measurement": "IC50", "setting": "[3]", "value": "> 100 µM (inactive)"},
      {"measurement": "IC50", "setting": "[4]", "value": "> 100 µM (inactive)"}
    ]},
    {"compound": "COc1ccc(S(=O)(=O)N(C)C[C@@H]2Oc3c(NC(=O)NC4CCCc5ccccc54)cccc3C(=O)N([C@@H](C)CO)C[C@H]2C)cc1", "note": "(some centres not stated)", "values": [
      {"measurement": "AC50", "setting": "INS1 [5]", "value": "124 µM (active)"}
    ]},
    {"compound": "Cn1nnnc1N=N/C(=N/Nc1ccccc1)c1ccccc1", "values": [
      {"measurement": "EC50", "setting": "[6]", "value": "> 120 µM (not active)"},
      {"measurement": "EC50", "setting": "BJ [7]", "value": "5.67 µM (active)"},
      {"measurement": "EC50", "setting": "cells [8]", "value": "8.13 µM (active)"},
      {"measurement": "EC50", "setting": "[9]", "value": "> 120 µM (not active)"},
      {"measurement": "EC50", "setting": "[10]", "value": "8.09 µM (active)"},
      {"measurement": "EC50", "setting": "BJ [11]", "value": "2.17 µM (active)"},
      {"measurement": "EC50", "setting": "cells [12]", "value": "> 350 µM (not active)"},
      {"measurement": "EC50", "setting": "BJ [13]", "value": "4.63 µM (inconclusive)"},
      {"measurement": "EC50", "setting": "[14]", "value": "7.59 µM (inconclusive)"},
      {"measurement": "IC50", "setting": "Exodeoxyribonuclease V", "value": "> 119 µM (inactive)"},
      {"measurement": "CC50", "setting": "[15]", "value": "< 0.078 µM (active)"},
      {"measurement": "IC50", "setting": "[16]", "value": "> 100 µM (inactive)"},
      {"measurement": "IC50", "setting": "Nonstructural protein 1", "value": "26.5 µM (active)"},
      {"measurement": "IC50", "setting": "[17]", "value": "> 119 µM (inactive)"},
      {"measurement": "IC50", "setting": "cells [18]", "value": "26.6 µM (active)"},
      {"measurement": "AC50", "setting": "HEK293", "value": "2.69 µM (active)"},
      {"measurement": "AC50", "setting": "[19]", "value": "3.55 µM (active)"},
      {"measurement": "EC50", "setting": "BJ [20]", "value": "0.627 µM (inconclusive)"},
      {"measurement": "AC50", "setting": "INS1 [21]", "value": "0.408 µM (active)"}
    ]}
  ]
}
